B1: IL-19: interleukin-19 polypeptide, amino acid sequence SEQ ID NO:2; mature secreted form amino acid 23 (His) to 177 (Ala) (protein, listed as Homo sapiens)
chain: MKLQCVSLWLLGTILILCSVDNHGLRRCLISTDMHHIEESFQEIKRAIQAKDTFPNVTILSTLETLQIIKPLDVCCVTKNLLAFYVDRVFKDHQEPNPKILRKISSIANSFLYMQKTLRQCQEQRQCHCRQEATNATRVIHDNYDQLEVHAAAIKSLGELDVFLAWINKNHEVMSSA

Test system: Ovcar3 (ATCC #HTB-161) cells
Experiment: Ovcar3 cytotoxicity assay (MTT readout)
Type: cell-based
Settings: 72 hours
Description: We tested IL-19 in an Ovcar3 (ATCC #HTB-161) cytoxicity assay to measure the ability of IL-19 to prevent cells from growing during normal growth conditions. We used MTT reagent (Promega, Madison, USA) as our detection and readout for this cell inhibition assay. Procedure of a cytoxicity assay: Ovcar3 Cytotoxicity Assay
Ovcar3 (ATCC #HTB-161) cells were plated at a density of 5000 cells/100 ul/well in clear 96 well TC plates. Cells were plated in complete growth media consisting of RPMI containing 20% FBS, 0.01 mg/ml insulin, 2% HEPES, 1% Sodium Pyruvate and 1% Glutamax. Cells were incubated overnight at 37° C. in a 5% CO2 incubator.
The following day, media was removed from the cells and replaced with 100 ul/well of appropriately diluted samples. All sample dilutions were done in complete growth media. Samples were incubated on the cells for 72 hours.
After incubation, an MTT assay was done on the cells using the manufacturer's protocol (Promega #PAG4100). Dye solution was incubated on the cells 4 hours, followed by a 1 hour incubation with the stop solution. Absorbance was then read on the Victor II and percent inhibition was calculated from the wells containing complete growth media only.

Molecule | inhibition of growth (3 uM) [%] | inhibition of growth (10 uM) [%] | inhibition of growth (31 uM) [%] | inhibition of growth (100 uM) [%] | inhibition of growth (1 ng/ml) [%] | inhibition of growth (10 ng/ml) [%] | inhibition of growth (100 ng/ml) [%] | inhibition of growth (1000 ng/ml) [%]
CC1=C(/C=C/C(C)=C/C=C/C(C)=C/C(=O)O)C(C)(C)CCC1 [Retnoic Acid] | 29 | 34 | 43 | 83 |  |  |  | 
B1 |  |  |  |  | 4 | 9 | 23 | 52

Source: patent US7074575B2, “Use of interleukin-19 to treat ovarian cancer” (ZymoGenetics, Inc., priority 2002, dated 2006)
